Experimental data taken from patent EP0974360A2, “Pharmaceutical preparations for use in combatting or preventing surface infections caused by microorganisms” (N.V. Nutricia, priority 1998, dated 2000).

Key:
C. glabrata Y110 [1] = test: Synergy experiments (8 by 8 dilution matrix, growth by UV turbidity at 630 nm); assay type: cell-based; settings: for UV (Candida growth, 630 nm): 24 hours
C. glabrata Y110 [2] = test: MIC and growth inhibition at several pH's in SLM or RPMI medium; assay type: cell-based; settings: figures 5 and 6

decline of effective concentration as compared to its MIC value (C. glabrata Y110 [1]; 0.0008 µg/ml 5-fluorocytosine with 0.02 mg/ml lactoferrin) [times] | SMILES | effect of an increase in pH of the medium on inhibition (C. glabrata Y110 [2]) | UV (Candida growth, 630 nm) (C. glabrata Y110 [1]; Fluconazole 0.2 mg/ml alone) | UV (Candida growth, 630 nm) (C. glabrata Y110 [1]; Fluconazole 0.33 mg/ml alone) | UV (Candida growth, 630 nm) (C. glabrata Y110 [1]; Fluconazole 0.5 mg/ml alone)
30 | Nc1nc(=O)[nH]cc1F [5-Fluorocytosine, 5-fluorocytosine] |  |  |  | 
 | OC(Cn1cncn1)(Cn1cncn1)c1ccc(F)cc1F [Fluconazole, fluconazole] | more efficient inhibition | 0.003 | 0.003 | 0.004
